Reference: patent publication US9534008B2, “Small molecule compounds that control plant- and insect-pathogenic nematodes” (California Institute of Technology, priority 2011, dated 2017)
“Also recorded” adds a separate entry of the source.

Assays:
[1] = tested on: C. elegans hermaphrodites and males; assay: Spot attraction assay; format: in vivo
Protocol: The spot attraction assays were conducted according to a previously reported method (Pungaliya et al., PNAS 106:7708-13 (2009); Srinivasan et al., Nature 454:1115-18 (2008), which are hereby incorporated by reference in their entirety). For both C. elegans hermaphrodites and males, 50-60 worms were harvested daily at the fourth larval stage (L4) and stored segregatedly by sex at 20° C. overnight, to be used as young adults the following day. For the competition experiments, two conditions were used: 120 nM ascr#3 and 10 nM icas#3 (Condition 1), or 12 μM ascr#3 and 1 μM icas#3 (Condition 2) in water containing 10% ethanol. Aliquots were stored at −20° C. in 20 μL tubes. 10% ethanol in water was used as control.
Attraction assays with hbas#3 were conducted as previously reported (Srinivasan et al., Nature 454:1115-18 (2008); Pungaliya et al., Proc. Natl. Acad. Sci. U.S.A. 106:7708-13 (2009), which are hereby incorporated by reference in their entirety). For the attraction assays, 50-60 hermaphrodite worms were harvested daily at the early fourth larval stage (L4) and stored at 20° C. overnight to be used as young adults the following day. Hbas#3 was dissolved in water containing 10% ethanol. Aliquots were stored at −20° C. in 20 μL tubes. 10% ethanol in water was used as control.

C. elegans [2] = assay: Aggregation assay; format: in vivo
Protocol: Aggregation behavior of worms was measured using assays reported in de Bono & Bargmann, Cell 94:679-89 (1998), which is hereby incorporated by reference in its entirety. Aggregation assays were conducted on standard NGM plates. Plates containing indole ascarosides were made by adding the indole ascaroside stock solution to the NGM media before they were poured onto the plates. These plates were dried at room temperature for 2 to 3 days. Control plates were treated similarly, except that ethanol solutions instead of icas solutions were added to the plates, corresponding to the amount of ethanol introduced via the icas solutions. Final ethanol concentrations of the plates were below 0.1% for all conditions. After drying, both control plates and plates containing indole ascarosides were seeded with 150 μl of an overnight culture of E. coli OP50 using a micropipette, and were allowed to dry for 2 days at room temperature. For “low worm density” experiments, 20 worms were placed onto the lawn and left at 20° C. for 3 hours. For “high worm density” experiments, approximately 120 worms were placed onto the bacterial lawn and left at 20° C. for 3 hours. Aggregation behavior was quantified as the number of animals that were in touch with two or more animals at greater than 50% of their body length.

P. redivivus females = assay: Retention assay, P. redivivus females; settings: in vivo
Protocol: OP50 E. coli was grown on a standard 5 cm agar plate (made with standard Nematode Growth Medium). The bacterial lawn was 16 mm in diameter and was grown overnight at 20° C. before being used in trials. Two 4 mm spots (0.6 μL) were placed on opposite sides of the bacterial lawn (using a transparent template to guide spot placement), and several minutes elapsed for the liquid to settle in before placing nematodes down on the assay. Recording began immediately upon worm placement. […]
Nematodes were isolated by gender at the L4 stage the day before being used in trials as developed adults. […] Trials were recorded for 20 minutes, and frames were collected for analysis at 1 frame per second. […]
A video camera attached to the microscope produced a digital video stream, which was then analyzed. The ratio of the time the average worm spent in each region of interest was calculated for every trial. […] Thus worm pixels were counted instead of whole worms, allowing fractions of a worm in the region of interest to be taken into account. It also eliminated the need for a shape-based worm identification algorithm, and allowed each frame to be analyzed independently. […] Thus, the ratio of worm-pixels to all pixels inside the region of interest can be calculated to produce the worm-occupancy ratio. […]

C. elegans [3] = assay: Ascaroside function (Table 12), C. elegans; format: in vivo, Caenorhabditis elegans; set-up: key to Attract Females/Herm. / Promote Dauer Formation / Attract Males: A very strong result of affecting nematode behavior is designated in the table as “strong.”
In short: (§1)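 Ascarosides, alone or blended, administered to nematodes; behavior change scored qualitatively, with "strong" denoting a very strong effect.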

Panagrellus redivivus = assay: Ascaroside function (Table 12), Panagrellus redivivus; format: in vivo
In short: as §1

S. feltiae = assay: Ascaroside function (Table 12), S. feltiae; format: in vivo, Steinernema feltiae
Protocol: Various ascarosides and ascaroside blends were administered to various nematodes described below (Table 12). […] A very strong result of affecting nematode behavior is designated in the table as “strong.”

C. elegans [4] = settings: in vivo; cited from earlier work
C. elegans [5] = settings: in vivo; cited from earlier work; remark: listed apart in the source

C[C@H](CCC(=O)O)O[C@@H]1O[C@@H](C)[C@H](OC(=O)c2c[nH]c3ccccc23)C[C@H]1O [icas#9]
attraction of both C. elegans sexes ([1]; high concentrations, 1 μmol, N2 hermaphrodites and him-5 males): attractive; also recorded: attracted
attraction of males ([1]; low concentrations, males): but not males
active concentration window (hermaphrodite attraction and aggregation) (C. elegans [2]; in vivo): femtomolar to picomolar; also recorded: fM-pM
aggregation of solitary and social hermaphrodites (C. elegans [2]; low worm density (20 worms per 5 cm plate)): increased aggregation
response of P. redivivus females (P. redivivus females): repealed
Attract Females/Herm. (C. elegans [3]): ([strong])
Promote Dauer Formation (C. elegans [3]): icas#9
Repel Females/Herm. (Panagrellus redivivus): icas#9
Dispersal (of dauer larvae, infectious juveniles) (S. feltiae): icas#9
aggregation in C. elegans (C. elegans [4]): aggregating stimulant
dauer-inducing activity (C. elegans [5]): moderate; also recorded: promote dauer entry
shape of dauer response curve (C. elegans [5]): bell-shaped
